Biological target: T1, AaCPS1 (β-caryophyllene synthase) (Artemisia annua, UniProt A0A059PYD5)
T1 construct: gene CPS; C-terminal 6xHis tag kept; transient expression in Nicotiana benthamiana (pEAQ-HT)
Assay: GC-MS of dodecane overlay
Type: biochemical
Conditions: 20 µM FPP, 20 mM MgCl2, 20 mM Tris-HCl pH 7.0, 10% glycerol, 2 mM DTT, 30 °C, 4 h; products β-caryophyllene (main) and α-humulene

T1 sequence (A0A059PYD5 1-550): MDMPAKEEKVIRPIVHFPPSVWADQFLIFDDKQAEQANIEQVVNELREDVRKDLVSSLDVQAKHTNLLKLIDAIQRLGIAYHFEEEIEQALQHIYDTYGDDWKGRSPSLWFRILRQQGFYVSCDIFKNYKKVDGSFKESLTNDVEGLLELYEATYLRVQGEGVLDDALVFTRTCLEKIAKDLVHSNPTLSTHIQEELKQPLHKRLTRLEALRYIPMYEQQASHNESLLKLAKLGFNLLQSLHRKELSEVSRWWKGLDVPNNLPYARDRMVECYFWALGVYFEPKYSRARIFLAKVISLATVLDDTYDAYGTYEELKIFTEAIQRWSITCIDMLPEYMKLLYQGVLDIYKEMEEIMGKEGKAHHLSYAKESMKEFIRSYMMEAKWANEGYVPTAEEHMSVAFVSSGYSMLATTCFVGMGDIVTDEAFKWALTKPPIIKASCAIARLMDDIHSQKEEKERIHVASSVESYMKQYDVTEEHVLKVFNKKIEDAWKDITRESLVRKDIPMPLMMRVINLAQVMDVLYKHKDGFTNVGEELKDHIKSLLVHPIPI

CC(C)=CCC/C(C)=C/CC/C(C)=C/COP(=O)(O)OP(=O)(O)O [FPP, farnesyl diphosphate]
GC-MS of dodecane overlay: the purified AaCPS1 was incubated with the substrate FPP

— PMC7194099, “Transient expression and purification of β-caryophyllene synthase in Nicotiana benthamiana to produce β-caryophyllene in vitro” (PeerJ, 2020)
